“And” between values parts separate entries of the source, which are not always exact repeats. Equal entries are not always repeated. Numbers after ± are expanded uncertainties.
Tests used:
[1] = Molar enthalpy of transition or fusion; settings: Crystal; DSC
[2] = for vapor or sublimation pressure: Transpiration method; for Normal melting temperature: DTA

SMILES	Molar enthalpy of transition or fusion [1]	vapor or sublimation pressure ([2]; 431.15 K, Crystal)	vapor or sublimation pressure ([2]; 437.15 K, Crystal)	vapor or sublimation pressure ([2]; 439.15 K, Crystal)	vapor or sublimation pressure ([2]; 441.15 K, Crystal)	vapor or sublimation pressure ([2]; 443.15 K, Crystal)	vapor or sublimation pressure ([2]; 445.15 K, Crystal)	vapor or sublimation pressure ([2]; 447.15 K, Crystal)	vapor or sublimation pressure ([2]; 449.15 K, Crystal)	vapor or sublimation pressure ([2]; 451.15 K, Crystal)	vapor or sublimation pressure ([2]; 453.15 K, Crystal)	Normal melting temperature ([2]; Crystal)	vapor or sublimation pressure ([2]; 436.15 K, Crystal)	vapor or sublimation pressure ([2]; 438.15 K, Crystal)	vapor or sublimation pressure ([2]; 440.15 K, Crystal)	vapor or sublimation pressure ([2]; 442.15 K, Crystal)	vapor or sublimation pressure ([2]; 444.15 K, Crystal)	vapor or sublimation pressure ([2]; 446.15 K, Crystal)	further results
CCN1CCN(c2cc3c(cc2F)c(=O)c(C(=O)O)cn3C2CC2)CC1 [Enrofloxacin]	7.86 ± 0.287 kcal/mol	1.79e-06 ± 2.3e-07 kPa	2.92e-06 ± 3.5e-07 kPa	3.41e-06 ± 4e-07 kPa	4.04e-06 ± 4.7e-07 kPa	4.71e-06 ± 5.4e-07 kPa	5.49e-06 ± 6.3e-07 kPa	6.61e-06 ± 7.4e-07 kPa	7.56e-06 ± 8.5e-07 kPa	8.91e-06 ± 9.9e-07 kPa	1.035e-05 ± 1.1e-06 kPa	221.6 ± 0.7 °C	–	–	–	–	–	–	vapor or sublimation pressure ([2]; 433.15 K, Crystal): 2.13e-06 ± 2.6e-07 kPa; vapor or sublimation pressure ([2]; 435.15 K, Crystal): 2.5e-06 ± 3e-07 kPa
O=C(O)c1ccccc1 [benzoic acid]	–	–	–	–	–	–	–	–	–	–	–	–	–	–	–	–	–	–	vapor or sublimation pressure ([2]; 307.15 K, Crystal): 0.000285 ± 4e-05 kPa; vapor or sublimation pressure ([2]; 323.15 K, Crystal): 0.001674 ± 0.00019 kPa; vapor or sublimation pressure ([2]; 338.15 K, Crystal): 0.007513 ± 0.00085 kPa; vapor or sublimation pressure ([2]; 354.15 K, Crystal): 0.0316 ± 0.0034 kPa
O=C(O)c1cn(C2CC2)c2cc(N3CCNCC3)c(F)cc2c1=O [ciprofloxacin]	–	–	–	–	–	–	–	–	–	–	–	270 ± 2.1 °C	1.95e-06 ± 2.5e-07 kPa	2.43e-06 ± 3e-07 kPa	2.85e-06 ± 3.4e-07 kPa	3.54e-06 ± 4.2e-07 kPa	4.3e-06 ± 5e-07 kPa	4.97e-06 ± 5.7e-07 kPa	vapor or sublimation pressure ([2]; 448.15 K, Crystal): 5.94e-06 ± 6.8e-07 kPa; vapor or sublimation pressure ([2]; 450.15 K, Crystal): 7.09e-06 ± 8e-07 kPa; vapor or sublimation pressure ([2]; 452.15 K, Crystal): 8.4e-06 ± 9.5e-07 kPa; vapor or sublimation pressure ([2]; 454.15 K, Crystal): 1.045e-05 ± 1.2e-06 kPa; vapor or sublimation pressure ([2]; 456.15 K, Crystal): 1.228e-05 ± 1.4e-06 kPa; vapor or sublimation pressure ([2]; 458.15 K, Crystal): 1.461e-05 ± 1.6e-06 kPa; vapor or sublimation pressure ([2]; 460.15 K, Crystal): 1.764e-05 ± 1.9e-06 kPa
C[C@H]1COc2c(N3CCN(C)CC3)c(F)cc3c(=O)c(C(=O)O)cn1c23 [levofloxacin]	5.26 ± 1.05 kcal/mol	–	5.71e-06 ± 6.5e-07 kPa	6.66e-06 ± 7.6e-07 kPa	8.35e-06 ± 9.4e-07 kPa	9.72e-06 ± 1.1e-06 kPa	1.135e-05 ± 1.3e-06 kPa	1.364e-05 ± 1.5e-06 kPa	1.607e-05 ± 1.8e-06 kPa	1.952e-05 ± 2.2e-06 kPa	2.326e-05 ± 2.6e-06 kPa	233.0 ± 3.1 °C	–	–	–	–	–	–	vapor or sublimation pressure ([2]; 455.15 K, Crystal): 2.722e-05 ± 3e-06 kPa; vapor or sublimation pressure ([2]; 457.15 K, Crystal): 3.146e-05 ± 3.4e-06 kPa; vapor or sublimation pressure ([2]; 459.15 K, Crystal): 3.689e-05 ± 4e-06 kPa; Normal melting temperature ([2]; Metastable crystal): 227.0 ± 3.1 °C and 230.5 ± 3.1 °C
CCn1cc(C(=O)O)c(=O)c2cc(F)c(N3CCNCC3)cc21 [norfloxacin]	8.63 ± 1.74 kcal/mol	2.66e-06 ± 3.2e-07 kPa	–	–	–	–	–	–	–	–	–	220.4 ± 2.2 °C	3.92e-06 ± 4.5e-07 kPa	4.53e-06 ± 5.2e-07 kPa	5.26e-06 ± 6e-07 kPa	6.02e-06 ± 6.8e-07 kPa	7.01e-06 ± 7.9e-07 kPa	8.32e-06 ± 9.3e-07 kPa	vapor or sublimation pressure ([2]; 423.15 K, Crystal): 1.3e-06 ± 1.8e-07 kPa; vapor or sublimation pressure ([2]; 425.15 K, Crystal): 1.57e-06 ± 2.1e-07 kPa; vapor or sublimation pressure ([2]; 427.15 K, Crystal): 1.86e-06 ± 2.4e-07 kPa; vapor or sublimation pressure ([2]; 429.15 K, Crystal): 2.21e-06 ± 2.7e-07 kPa; vapor or sublimation pressure ([2]; 432.15 K, Crystal): 2.85e-06 ± 3.4e-07 kPa; vapor or sublimation pressure ([2]; 434.15 K, Crystal): 3.35e-06 ± 3.9e-07 kPa; Triple point temperature ([2]; Crystal 2, DSC): 468.7 ± 0.8 K
